# According to paper PMC9127750, “Structure-based design of CDC42 effector interaction inhibitors for the treatment of cancer” (Cell reports, 2022):
# What was measured:
# ERK phosphorylation = assay: Immunoblotting pERK; assay type: cell-based, Human; settings: A375 and WM3248; 10 and 20 μM at 6 h, 5 μM at 24 h
# Description: (§1) […]. ImageJ was used to perform densitometry.
# A375 cells were maintained in DMEM (plus high glucose, L-glutamine, sodium pyruvate) supplemented with 10% FBS, 1% MEM NEAA and 1% antibiotic-antimycotic. WM3248 cells were maintained in 80% MCDB153 pH 7.30, 20% Leibovitz’s L-15, 2% FBS, 5 ug/mL insulin (bovine), 1.68 mM CaCl2, and 1% antibiotic-antimycotic. All cells were kept in 5% CO2 incubator at 37°C.
# RELB protein level = assay: Immunoblotting RELB; assay type: cell-based, Human; settings: WM3248, 24 h, versus untreated cells
# Source text: as §1
# [1] = biological target: RAC1 and PAK1-PBD interaction (Homo sapiens, UniProt P63000); assay: CDC42 interaction assay (PAK1-PBD pull-down); assay type: cell-based; set-up: endogenous in cells; host or cells: WM3248 (or WM983B) melanoma cells; PAK1 PBD beads from Cell Biolabs kit; settings: WM3248 cells; ARN22089 at 10 or 50 μM
# Description: A CDC42 activation assay was performed according to the manufacturer’s protocol (Cell Biolabs, San Diego, CA) as described previously ([Ruiz et al., 2017]). […] 24 hours later the lysates from treated and untreated cells were unloaded of guanosine nucleotides and either loaded with GDP or GTPγS. […] Precipitated lysates were then immunoblotted with indicated antibodies.
smiles,measurement,setting,value
"CN(C)c1cccc(Nc2cc(-c3ccccc3)nc(C3CCNCC3)n2)c1 [ARN22089, N1,N1-dimethyl-N3-(6-phenyl-2-(piperidin-4-yl)pyrimidin-4-yl)benzene-1,3-diamine]",ERK phosphorylation (immunoblot),ERK phosphorylation,inhibited ERK phosphorylation
same,RELB protein level (immunoblot),RELB protein level,increased
same,inhibition of RAC1 - PAK1-PBD interaction,[1],did not inhibit
